From patent US20240016784A1, “Y BOX BINDING PROTEIN 1 INHIBITORS” (Oregon Health & Science University, priority 2020, published 2024)

How the values were obtained:
[1] = Tolerability of SU056 at increasing concentrations; assay type: in vivo; settings: for death: different concentration; for tolerability: increasing concentrations
Description: FIGS. 15A-15E. […] SU056 treatment at increasing concentrations dose not challenge the dietary behavior as reflected by change in body weight FIG. 15A) Mice and FIG. 15B) Rat. […] Liver microsomes were used for the purpose of metabolic profiling.

[2] = system: YB-1, TMSB10, SUMO2 and PMSB2 proteins; assay: Western blot of CETSA targets in OVCAR8 cells; assay type: cell-based, human; settings: 1, 2.5 and 5 μM for 12 h
Experimental: Out of six targets identified, we selected proteins whose thermal shift is above 5° in the presence of SU056 for further study of protein expression after treatment. […] To study the in vivo effects of SU056 treatment, we analyzed ID8 tumor xenograft samples via immunohistochemistry (IHC). […] To identify the broader effects of SU056 on YB-1 and its downstream protein/activity in different ovarian cancer cell lines, we selected six different cell lines and treated them with SU056 (2.5 μM) for 12 h. Cells were analyzed for YB-1 and CD44 expression and Multidrug resistance 1 (MDR1, ABC pump mediated efflux). […] OVCAR4, OVCAR8, and SKOV3 cells were treated with SU056 (1, 2.5, and 5 μM) for 3, 6, 12, and 24 h and YB-1 expression was measured using YB-1 ELISA. […]
Immunoblotting: Once 70% confluency of OC cells plated in 100 mm cell culture was obtained, dishes were treated with a respective concentration of SU056 for a respective time. […] Proteins were detected using Immobilon® Crescendo Western HRP Substrate (Millipore, Germany) and visualized on an IVIS Lumina Imaging System (Perkin Elmer, Waltham, MA).
FIGS. 4A-4E: SU056 inhibits YB-1. […] FIG. 4C) Respective OC cells were treated with 2.5 μM SU056 for 12 h and YB-1 & CD44 expression and multidrug resistance activity was measured as described in the ‘method’ section. […]

CALM3 = molecular target: T1, CALM3 (Homo sapiens, UniProt P0DP25); assay: Cellular Thermal Shift Assay (CETSA) in OVCAR8 cells; assay type: binding; settings: SU056 2.5 μM, 1.5 h, read-out: increase in thermal stability (Tm shift) of CALM3
T1 construct: endogenous in cells; host or cells: OVCAR8
Experimental: (§1) The cellular thermal shift assay (CETSA) is based on the principle of protein-ligand interactions causing a shift in protein thermal stability (Savitski et al., 2014). When a protein interacts with ligand, its thermal stability increases, and this principle allows identification of which protein targets that are engaged by small molecules or drug candidates. We used this assay to identify protein targets of SU056. OVCAR8 cells were treated with SU056 (2.5 μM) for 1.5 h, and protein lysates were analyzed for a thermal shift. The heat maps represent the thermal stability of 804 soluble proteins in the presence and absence of SU056 compare with 37° C. (FIG. 3A).
(§2) Cellular Thermal Shift Assay (CETSA): The assay was performed as previously described (Savitski et al., 2014). Briefly, OVCAR8 cells were treated with vehicle (DMSO) or SU056 (2.5 μM) at 70-80% confluency for 1.5 h. Cells were harvested and washed with 1×PBS twice. Cells were pelleted and resuspended in PBS. 10 different PCR tubes with 1×10^6 cells/tube (in 100 μL PBS) were prepared for both the groups. Tubes were exposed to respective temperatures (37, 41, 44, 47, 50, 53, 56, 59, 63, 67° C.) for 3 min using a thermal cycler (Bio-Rad, CA, USA) followed by 2 min incubation at room temperature.

SUMO2 = molecular target: T2, SUMO2 (Homo sapiens, UniProt P61956); assay: as above; assay type: binding; settings: SU056 2.5 μM, 1.5 h, read-out: increase in thermal stability (Tm shift) of SUMO2
T2 construct: endogenous in cells; host or cells: OVCAR8
Experimental: as §1, §2

YB-1 = YB-1 (Homo sapiens, UniProt P67809); assay: Pulldown assay using biotinylated SU056; settings: OVCAR8 cells and protein lysate
Experimental: Pulldown assay using biotinylated SU056: protein pulldown assay was performed using biotinylated SU056. […] Pulldown from cells: OVCAR8 cells were treated with 2.5 μM biotinylated SU056 for 1.5 h. Treated cells were collected and lysed using M-PER™ lysis solution (Thermo Scientific, #78503), supplemented with Halt protease and phosphatase inhibitor cocktail (Thermo Scientific, #78440). 300 μg protein was incubated with magnetic conjugate streptavidin bead (CST, #5947) at 4° C. on rocker overnight. […] Pulldown from cell lysates: OVCAR8 cells were collected and lysed using M-PER™ lysis solution (Thermo Scientific, #78503), supplemented with Halt protease and phosphatase inhibitor cocktail (Thermo Scientific, #78440). 1000 μg protein was incubated with 10 μM biotinylated SU056 at 4° C. on rocker overnight followed by overnight incubation with magnetic conjugate streptavidin bead (CST, #5947) at 4° C. After both the pulldown, biotin-streptavidin conjugates were pulldown and washed using magnetic rack. After three washing, beads were resuspended in 2×SDS sample buffer followed by heating at 90-100° C. for 5 min. Samples were resolved and probed with GBP1 (Abnova, #H00002633-PW1, 1:2000) and YB-1 (CST, #8475; 1:2000) as described above in immunoblotting. […]

ovarian cancer cells = assay: Apoptotic cell death assay (Annexin-FITC); assay type: cell-based; settings: 24 h treatment; Annexin-FITC staining
Experimental: To determine whether proliferation inhibition was the dominant factor driving the reduction in OC viability seen with AzP treatment, we used propidium iodide and annexin-FITC stains with flow cytometry to measure the distribution of cell cycle phases after treatment. […] Furthermore, in the Boyden chamber assay for cell migration, SU093 inhibited cell migration by 40-46% (1 μM, P<0.05) in different OC cell lines.
Apoptotic cell death assay: Cells were plated and treated as described in cell cycle analysis assay above. Treated cells were incubated for 24 h and both live and dead cells were collected. Cells were stained with Annexin V and PI using FITC Annexin V apoptosis detection kit (BD Pharmingen, San Jose, CA) by following the manufacturer's protocol. Guava® easyCyte™ Flow Cytometer was used to analyze the stained cells.
FIG. 1A) Lead optimization of SU093 to obtain SU056. FIG. 1B) IC50 values of SU093 and SU056 on various ovarian cancer cells. Clonogenic survival of OC cells treated with SU093 or SU056. […] FIG. 1C) Representative colony formation from respective wells. FIG. 1D) Number of colonies formed after SU093 and SU056 treatment. […] FIG. 1F) Cell cycle distribution of propidium iodide (PI)-stained OVCAR8, SKOV3, and ID8 cells. […] FIG. 1G) Effects of SU093 and SU056 on apoptotic cell death analyzed by Annexin-FITC staining. […] FIG. 1H) Cell migration assay.

Sequence of YB-1 (P67809 whole entry): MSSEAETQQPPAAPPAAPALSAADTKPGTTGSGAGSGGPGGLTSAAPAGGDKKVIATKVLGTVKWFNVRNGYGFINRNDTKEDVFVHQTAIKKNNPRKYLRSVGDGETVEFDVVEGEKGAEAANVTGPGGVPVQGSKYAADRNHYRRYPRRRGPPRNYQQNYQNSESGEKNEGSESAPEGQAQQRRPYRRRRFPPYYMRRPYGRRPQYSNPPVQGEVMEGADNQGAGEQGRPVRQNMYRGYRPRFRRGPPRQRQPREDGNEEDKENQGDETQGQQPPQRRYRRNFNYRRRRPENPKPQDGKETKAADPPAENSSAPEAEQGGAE
T2 sequence (P61956 1-93 limits assumed): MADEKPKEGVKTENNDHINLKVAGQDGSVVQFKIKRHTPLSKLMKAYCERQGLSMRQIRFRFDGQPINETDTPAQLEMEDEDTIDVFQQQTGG

For O=C1OCC2=C1C(c1cccc(F)c1)c1cc3c(cc1N2CCO)OCO3 (stereo not drawn) [SU056, 9-(3-fluorophenyl)-5-(2-hydroxyethyl)-6,9-dihydro-[1,3]dioxolo[4,5-g]furo[3,4-b]quinolin-8(5H)-one], the death ([1]; mice) was “did not cause death”, the tolerability ([1]; mice) was “well tolerated” and the death ([1]; rat) was “did not cause death”. For the same compound, the tolerability ([1]; rat) was “well tolerated”, the “protein expression by Western blot” value [2] was “inhibits the YB-1, TMSB10, SUMO2 and PMSB2 proteins in a dose-dependent manner” and the ΔTm at 2.5 µM (CALM3) was 4.03 ± 1.07 °C. The ΔTm at 2.5 µM (SUMO2) was 5.4 ± 1.08 °C, the “physical interaction with YB-1 (pulldown)” value (YB-1) was “physically interacts with YB-1” and the apoptotic cell death (ovarian cancer cells) was “induce apoptotic cell death”.
